Laboratory results taken from US10273487B2, “Transfection vector for pathogenic amoebae and uses thereof” (priority 2017, dated 2019).
In brackets after ≈: the same amount, converted by molar mass. Where two headings read alike, the source gives them in different places.

Assays:
N. fowleri [1] = assay: MTS viability assays in N. fowleri; design: IC50 Value / IC90 Value: unit not given beside the values; settings: for IC50 Value / IC90 Value / IC95 Value: MTS viability assay, N. fowleri, Table 1, unit not given
N. fowleri [2] = assay: Preliminary experiments on natural resistance of N. fowleri to selection marker
Source text: Five different selection markers were screened for their suitability to use in an N. fowleri transfection system. […] Hygromycin was used in subsequent studies as the selectable marker, partly due to its easy use in other eukaryotic transfection systems.

Compound | IC50 Value (N. fowleri [1]) | IC90 Value (N. fowleri [1]) | IC95 Value (N. fowleri [1]) | IC50 (N. fowleri [1]; Naegleria fowleri, read-out: IC50 Value) [µg/mL] | IC50 (N. fowleri [1]; Naegleria fowleri, read-out: IC50 values) [µg/mL] | IC90 (N. fowleri [1]; Naegleria fowleri, read-out: IC90 Value) [µg/mL] | resistance of N. fowleri to the selection marker (N. fowleri [2])
nourseothricin | 26.5 | 165.4 | 218.7 |  |  |  | 
bleomycin | 0.49 | 1.62 | 2.10 |  |  |  | 
COc1ccc(C[C@H](N)C(=O)N[C@H]2[C@@H](O)[C@H](n3cnc4c(N(C)C)ncnc43)O[C@@H]2CO)cc1 [puromycin] |  |  | 1.91 | 0.58 (≈ 1.23 µM) | 0.6 (≈ 1.27 µM) | 1.49 (≈ 3.16 µM) | 
neomycin | 681.1 | 2385.3 | 3078.4 |  |  |  | natural resistance
